According to patent US6472348B1, “Pyridone derivatives and herbicides” (Kumiai Chemical Industry Co., Ltd., priority 1996, dated 2002):

Columns and labels:
Format in all cases: in vivo
[1] = tested on: common lambsquarters (Ch); test: Test Example 3: herbicidal effects by upland field foliage treatment; design: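 grade of growth control; 5 = at least 90%; 4 = 70 to 90%; 3 = 50 to 70%; 2 = 30 to 50%; 1 = 10 to 30%; 0 = under 10%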
Method: (§1) (Test on Herbicidal Effects by Upland Field Foliage Treatment)
(§2) In a plastic pot (surface area: 120 cm^2) filled with sand, barnyardgrass (Ec), Diaitaria ciliaris (Di), pale smartweed (Po), slender amaranth (Am), common lambsquarters (Ch) and rice flatsedge (Ci) were sown and covered with soil and were cultured in a green house for 2 weeks. […] The plants were then cultured in the green house, and the evaluation of the herbicidal effects was conducted on the 14th day after the treatment in accordance with the standards as identified in Table 47. Symbol—represents “not tested”.

pale smartweed (Po) = test: as above; design: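 grade of growth control; 5 = at least 90%; 4 = 70 to 90%; 3 = 50 to 70%; 2 = 30 to 50%; 1 = 10 to 30%; 0 = under 10%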
Method: as §1, §2

slender amaranth (Am) = test: as above; design: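 grade of growth control; 5 = at least 90%; 4 = 70 to 90%; 3 = 50 to 70%; 2 = 30 to 50%; 1 = 10 to 30%; 0 = under 10%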
Method: as §1, §2

Diaitaria ciliaris (Di) = test: as above; design: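 grade of growth control; 5 = at least 90%; 4 = 70 to 90%; 3 = 50 to 70%; 2 = 30 to 50%; 1 = 10 to 30%; 0 = under 10%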
Method: as §1, §2

barnyardgrass (Ec) [2] = test: as above; design: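 grade of growth control; 5 = at least 90%; 4 = 70 to 90%; 3 = 50 to 70%; 2 = 30 to 50%; 1 = 10 to 30%; 0 = under 10%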
Method: as §1, §2

rice flatsedge (Ci) = test: as above; design: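 grade of growth control; 5 = at least 90%; 4 = 70 to 90%; 3 = 50 to 70%; 2 = 30 to 50%; 1 = 10 to 30%; 0 = under 10%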
Method: as §1, §2

bulrush (Sc) = test: Test Example 1: herbicidal effects by paddy field soil treatment; conditions: 100 g of the active ingredient per 10 ares, 21st day after the application, index 0-5 of Table 47;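 also: grade of growth control; 5 = at least 90%; 4 = 70 to 90%; 3 = 50 to 70%; 2 = 30 to 50%; 1 = 10 to 30%; 0 = under 10%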
Method: (§3) (Test on Herbicidal Effects by Paddy Field Soil Treatment)
(§4) In a plastic pot (surface area: 100 cm^2) filled with paddy field soil, barnyardgrass (Ec), monochoria (Mo) and bulrush (Sc) were sown after puddling and leveling, and flooded to a water depth of 3 cm. […] The dose was 100 g of the active ingredient per 10 ares. The plants were then cultured in a green house, and the evaluation of the herbicidal effects was conducted on the 21st day after the application in accordance with the standards as identified in Table 47.

monochoria (Mo) = test: as above; conditions: 100 g of the active ingredient per 10 ares, 21st day after the application, index 0-5 of Table 47;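 also: grade of growth control; 5 = at least 90%; 4 = 70 to 90%; 3 = 50 to 70%; 2 = 30 to 50%; 1 = 10 to 30%; 0 = under 10%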
Method: as §3, §4

barnyardgrass (Ec) [3] = test: as above; conditions: 100 g of the active ingredient per 10 ares, 21st day after the application, index 0-5 of Table 47
Method: as §3, §4

[4] = 100 g of the active ingredient per 10 ares, evaluated on the 14th day after treatment
[5] = 100 g active ingredient per 10 ares, evaluated 14th day after treatment

Structure (SMILES) | Herbicidal effects Ch [1, 4] | Herbicidal effects Po (pale smartweed (Po); [4]) | Herbicidal effects Am (slender amaranth (Am); [4]) | Herbicidal effects Di (Diaitaria ciliaris (Di); [4]) | Herbicidal effects Ec (barnyardgrass (Ec) [2]; [4]) | Herbicidal effects Ci (rice flatsedge (Ci); [4]) | Herbicidal effects Sc (bulrush (Sc)) | Herbicidal effects Mo (monochoria (Mo)) | Herbicidal effects Ec (barnyardgrass (Ec) [3]) | Herbicidal effects Ch [1, 5] | Herbicidal effects Po (pale smartweed (Po); [5]) | Herbicidal effects Am (slender amaranth (Am); [5]) | Herbicidal effects Di (Diaitaria ciliaris (Di); [5]) | Herbicidal effects Ec (barnyardgrass (Ec) [2]; [5]) | Herbicidal effects Ci (rice flatsedge (Ci); [5])
CCOC(=O)C(Cl)Cc1cc(-c2ccc(C(F)(F)F)n(C)c2=O)c(F)cc1Cl (stereo not drawn) [Compound No. 1-139, ethyl 2-chloro-3-[2-chloro-4-fluoro-5-(1methyl-6-trifluoromethyl-2(1H)pyridon-3-yl)]phenyl propionate] | 5 | 5 | 5 | 5 | 5 | 5 | – | – | – | – | – | – | – | – | –
Cn1c(C(F)(F)F)ccc(-c2cc(C(N)=O)c(Cl)cc2F)c1=O [1-145] | 5 | 5 | 5 | 5 | 5 | 5 | 5 | 5 | 5 | – | – | – | – | – | –
Cn1c(C(F)(F)F)ccc(-c2cc(NS(C)(=O)=O)c(Cl)cc2Cl)c1=O [1-75] | – | – | – | – | – | – | 5 | 5 | 5 | – | – | – | – | – | –
Cn1c(C(F)(F)F)ccc(-c2cc3c(cc2F)OCC(=O)N3CC2CO2)c1=O (stereo not drawn) [Compound 2-20] | – | – | – | – | – | – | 5 | 5 | 5 | – | – | – | – | – | –
COC(=O)CSc1cc(-c2ccc(C(F)(F)F)n(C)c2=O)c(F)cc1Cl [1-46] | 5 | 5 | 5 | 5 | 5 | 5 | 5 | 5 | 5 | – | – | – | – | – | –
COCCOC(=O)CSc1cc(-c2ccc(C(F)(F)F)n(C)c2=O)c(F)cc1Cl [1-49] | 5 | 5 | 5 | 5 | 5 | 5 | 5 | 5 | 5 | – | – | – | – | – | –
COC(=O)Oc1cc(-c2ccc(C(F)(F)F)n(C)c2=O)c(F)cc1Cl [1-153] | – | – | – | – | – | – | 5 | 5 | 5 | – | – | – | – | – | –
CC(C)OCCOC(=O)CSc1cc(-c2ccc(C(F)(F)F)n(C)c2=O)c(Cl)cc1Cl [1-129] | 5 | 5 | 5 | 5 | 5 | 5 | – | – | – | – | – | – | – | – | –
C=CC(=O)c1cc(-c2ccc(C(F)(F)F)n(C)c2=O)c(F)cc1Cl [Compound 1-198] | – | – | – | – | – | – | 5 | 5 | 5 | 5 | 5 | 5 | 5 | 5 | 5
COC(=O)CSc1cc(-c2ccc(C(F)(F)F)n(C)c2=O)c(Cl)cc1Cl [1-54] | 5 | 4 | 5 | 5 | 5 | 5 | 5 | 5 | 5 | – | – | – | – | – | –
Cn1c(C(F)(F)F)ccc(-c2ccc3c(c2)NC(=O)CO3)c1=O [2-30] | – | – | – | – | – | – | 5 | 5 | 5 | – | – | – | – | – | –
CCCOC(=O)CSc1cc(-c2ccc(C(F)(F)F)n(C)c2=O)c(Cl)cc1Cl [1-130] | – | – | – | – | – | – | 5 | 5 | 5 | – | – | – | – | – | –
CCOC(=O)CNc1cc(-c2ccc(C(F)(F)F)n(C)c2=O)c(F)cc1Cl [1-63] | 5 | 5 | 5 | 5 | 5 | 5 | – | – | – | – | – | – | – | – | –
Cn1c(C(F)(F)F)ccc(-c2ccc(Cl)c(SCC(=O)OC3CCCC3)c2)c1=O [1-115] | – | – | – | – | – | – | 5 | 5 | 5 | – | – | – | – | – | –
COC(=O)C(Cl)Cc1cc(-c2ccc(C(F)(F)F)n(C)c2=O)c(F)cc1Cl (stereo not drawn) [1-70] | 5 | 5 | 5 | 5 | 5 | 5 | 5 | 5 | 5 | – | – | – | – | – | –
Cn1c(C(F)(F)F)ccc(-c2cc(C(=O)NS(C)(=O)=O)c(Cl)cc2F)c1=O [1-147] | – | – | – | – | – | – | 5 | 5 | 5 | – | – | – | – | – | –
CCCCCOC(=O)CSc1cc(-c2ccc(C(F)(F)F)n(C)c2=O)c(Cl)cc1Cl [1-123] | 5 | 5 | 5 | 5 | 4 | 5 | 5 | 5 | 5 | – | – | – | – | – | –
Cn1c(C(F)(F)F)ccc(-c2cc(SCC(=O)O)c(Cl)cc2Cl)c1=O [1-127] | 5 | 5 | 5 | 5 | 4 | 5 | 5 | 5 | 5 | – | – | – | – | – | –
Cn1c(C(F)(F)F)ccc(-c2cc(OC3CCCO3)c(Cl)cc2F)c1=O (stereo not drawn) [Compound 1-183] | 5 | 5 | 5 | 5 | 4 | 5 | 5 | 5 | 5 | – | – | – | – | – | –

Structure (SMILES) | Herbicidal effects Ch [1, 4] | Herbicidal effects Po (pale smartweed (Po); [4]) | Herbicidal effects Am (slender amaranth (Am); [4]) | Herbicidal effects Di (Diaitaria ciliaris (Di); [4]) | Herbicidal effects Ec (barnyardgrass (Ec) [2]; [4]) | Herbicidal effects Ci (rice flatsedge (Ci); [4]) | Herbicidal effects Sc (bulrush (Sc)) | Herbicidal effects Mo (monochoria (Mo)) | Herbicidal effects Ec (barnyardgrass (Ec) [3]) | Herbicidal effects Ch [1, 5] | Herbicidal effects Po (pale smartweed (Po); [5]) | Herbicidal effects Am (slender amaranth (Am); [5]) | Herbicidal effects Di (Diaitaria ciliaris (Di); [5]) | Herbicidal effects Ec (barnyardgrass (Ec) [2]; [5]) | Herbicidal effects Ci (rice flatsedge (Ci); [5])
CCOC(=O)C(C)Sc1cc(-c2ccc(C(F)(F)F)n(C)c2=O)c(Cl)cc1Cl (racemic) [1-124] | 5 | 5 | 5 | 5 | 5 | 5 | 5 | 5 | 5 | – | – | – | – | – | –
CCCC(Sc1cc(-c2ccc(C(F)(F)F)n(C)c2=O)ccc1Cl)C(=O)OCC (racemic) [1-116] | 5 | 5 | 5 | 4 | 4 | 5 | – | – | – | – | – | – | – | – | –
Cn1c(C(F)(F)F)ccc(-c2cc(OC3CCCC3)c(Cl)cc2Cl)c1=O [1-40] | – | – | – | – | – | – | 5 | 5 | 5 | – | – | – | – | – | –
CCOC(=O)CSc1cc(-c2ccc(C(F)(F)F)n(C)c2=O)c(F)cc1Cl [1-45] | 5 | 5 | 5 | 5 | 5 | 5 | 5 | 5 | 5 | – | – | – | – | – | –
Cn1c(C(F)(F)F)ccc(-c2cc(OC3CCCO3)c(Cl)cc2Cl)c1=O (stereo not drawn) [Compound 1-212] | – | – | – | – | – | – | 4 | 5 | 5 | – | – | – | – | – | –
CC(C)=NOC(=O)c1cc(-c2ccc(C(F)(F)F)n(C)c2=O)c(F)cc1Cl [1-68] | 5 | 5 | 5 | 5 | 5 | 5 | 5 | 5 | 5 | – | – | – | – | – | –
CCOC(=O)COc1cc(-c2ccc(C(F)(F)F)n(C)c2=O)c(F)cc1Cl [Compound No. 1-19] | 5 | 5 | 5 | 5 | 5 | 5 | 5 | 5 | 5 | – | – | – | – | – | –
CCOC(=O)COC(=O)c1cc(-c2ccc(C(F)(F)F)n(C)c2=O)c(F)cc1Cl [1-142] | 5 | 5 | 5 | 5 | 5 | 5 | 5 | 5 | 5 | – | – | – | – | – | –
Cn1c(C(F)(F)F)ccc(-c2cc(Oc3ccccc3)c(Cl)cc2Cl)c1=O [1-36] | – | – | – | – | – | – | 5 | 5 | 5 | – | – | – | – | – | –
Cn1c(C(F)(F)F)ccc(-c2cc(SCC(=O)OC3CCCC3)c(Cl)cc2F)c1=O [1-47] | – | – | – | – | – | – | 5 | 5 | 5 | – | – | – | – | – | –
CCOC(=O)COc1cc(-c2ccc(C(F)(F)F)n(C)c2=O)ccc1Cl [1-107] | – | – | – | – | – | – | 5 | 5 | 5 | – | – | – | – | – | –
Cn1c(C(F)(F)F)ccc(-c2cc(OCc3ccccc3)c(Cl)cc2F)c1=O [1-23] | – | – | – | – | – | – | 5 | 5 | 5 | – | – | – | – | – | –
Cc1cc(-c2ccc(Cl)cc2Cl)c(=O)[nH]c1C(F)(F)F [1-97] | – | – | – | – | – | – | 5 | 5 | 5 | – | – | – | – | – | –
Cn1c(C(F)(F)F)ccc(-c2cc(O)c(Cl)cc2F)c1=O [Compound No. 1-13] | 5 | 5 | 5 | 5 | 5 | 5 | 5 | 5 | 5 | – | – | – | – | – | –
CCOC(=O)CSc1cc(-c2ccc(C(F)(F)F)n(C)c2=O)c(Cl)cc1Cl [1-53] | – | – | – | – | – | – | 5 | 5 | 5 | – | – | – | – | – | –
Cn1cc(-c2ccc(Cl)cc2)c(=O)cc1C(F)(F)F [Compound 6-1] | – | – | – | – | – | – | 5 | 5 | 5 | – | – | – | – | – | –
CCOC(=O)COc1cc(-c2ccc(C(F)(F)F)n(C)c2=O)c(Cl)cc1Cl [1-33] | 5 | 4 | 5 | 4 | 5 | 5 | 5 | 5 | 5 | – | – | – | – | – | –
Cn1c(C(F)(F)F)ccc(-c2cc(SC3CCCC3)c(Cl)cc2Cl)c1=O [1-128] | – | – | – | – | – | – | 4 | 5 | 5 | – | – | – | – | – | –
